Laboratory results published in US20120295247A1, “PORCINE SEMINAL MATERIAL COMPOSITION FOR ARTIFICIAL INSEMINATION OF SOWS” (GENES DIFFUSION, priority 2009, published 2012).

Test system: spermatozoa present in free semen
From the text: In order to obtain efficient fertilization, more than 50% of the spermatozoa have to be […] (i.e. having an individual displacement velocity of more than 20 micrometers per second).
Gedil® is a diluting agent consisting of a biological medium favorable to preservation of spermatozoa.

## [Ba+2].[Cl-].[Cl-] [BaCl2, barium chloride]
BaCl2 at 5 or 10% on free semen, after two days
  motility of the spermatozoa: significant reduction
Products present in the capsules
  effect on essential properties (such as the motility) of porcine spermatozoa: alter the essential properties
Spermatozoa diluted in media other than Gedil, addition of BaCl2
  toxicity (or stress) for spermatozoa: toxicity
